Earlier results on two compounds are cited in patent US20080234349A1, “PPAR active compounds” (priority 2005, published 2008).

SMILES strings stand for the structures.

Data set [1] concerns the target T1, PPARδ (Homo sapiens, UniProt Q03181).
T1 sequence (Q03181 1-441): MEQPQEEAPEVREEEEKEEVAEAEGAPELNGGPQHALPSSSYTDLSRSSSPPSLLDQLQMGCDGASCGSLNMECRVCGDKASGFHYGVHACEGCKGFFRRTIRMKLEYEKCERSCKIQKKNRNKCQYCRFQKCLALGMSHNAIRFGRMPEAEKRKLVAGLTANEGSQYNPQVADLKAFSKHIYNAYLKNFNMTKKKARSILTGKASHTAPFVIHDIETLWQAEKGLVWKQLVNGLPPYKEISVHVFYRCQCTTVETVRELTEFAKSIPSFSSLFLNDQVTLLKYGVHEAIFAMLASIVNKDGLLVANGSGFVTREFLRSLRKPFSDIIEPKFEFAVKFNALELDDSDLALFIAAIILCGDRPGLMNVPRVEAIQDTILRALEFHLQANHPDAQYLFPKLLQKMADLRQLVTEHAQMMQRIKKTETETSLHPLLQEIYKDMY

Data set [2] deals with T2, murine PPARα (Mus musculus, UniProt P23204).
T2 sequence (P23204 1-468): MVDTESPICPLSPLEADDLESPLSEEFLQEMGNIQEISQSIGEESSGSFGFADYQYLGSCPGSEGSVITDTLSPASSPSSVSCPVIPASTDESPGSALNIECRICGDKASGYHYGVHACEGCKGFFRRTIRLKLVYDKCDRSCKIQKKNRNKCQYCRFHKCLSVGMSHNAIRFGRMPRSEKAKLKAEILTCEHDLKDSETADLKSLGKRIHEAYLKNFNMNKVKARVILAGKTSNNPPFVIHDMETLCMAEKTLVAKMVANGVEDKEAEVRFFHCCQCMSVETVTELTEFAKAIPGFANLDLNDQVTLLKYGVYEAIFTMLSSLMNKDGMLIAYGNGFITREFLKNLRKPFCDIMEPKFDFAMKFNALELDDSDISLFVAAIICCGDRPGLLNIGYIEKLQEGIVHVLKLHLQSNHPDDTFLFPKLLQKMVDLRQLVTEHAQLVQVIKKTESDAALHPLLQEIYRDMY

The conditions of data set [3]: recent large prospective trial, patients.

Take `CCCc1c(OCCCOc2ccc(OCC(=O)O)cc2)ccc(C(C)=O)c1O` [Compound L-165041]: the “agonist selectivity for PPARδ over PPARγ” value in data set [1] is given as “approximately 30 fold”. Also, the “activity on murine PPARα” value in data set [2] was “inactive”.
Consider `Cc1ccc(C)c(OCCCC(C)(C)C(=O)O)c1` [gemfibrozil], for which, in data set [3], the “reduction in cardiovascular events or death” value is given as 22%.
